Data as given in the NIST ThermoML archive (doi:10.1016/j.jct.2014.02.022).

Key:
[1] = mn = molality of the nth substance listed, in mol/kg; details: 101 kPa, Liquid; for viscosity: Capillary tube (Ostwald / Ubbelohde) method; for mass density: Vibrating tube method
[2] = 101 kPa, Liquid; for viscosity: Capillary tube (Ostwald / Ubbelohde) method; for mass density: Vibrating tube method

Cc1ncc(CO)c(CO)c1O.Cl [5-hydroxy-6-methyl-3,4-pyridinedimethanol hydrochloride] + CO
[1]
Details	mass density, 298.15 K [kg/m3]	mass density, 308.15 K [kg/m3]	mass density, 318.15 K [kg/m3]	viscosity, 298.15 K [mPa·s]	viscosity, 308.15 K [mPa·s]	viscosity, 318.15 K [mPa·s]
m1 = 0.0127	789.07	778.65	769.25	0.5562	0.4853	0.4275
m1 = 0.0254	789.94	779.85	770.18	0.5621	0.4955	0.4468
m1 = 0.0382	790.86	780.83	771.13	0.5712	0.5034	0.464

CO [methanol]
[2]
Details	mass density [kg/m3]	viscosity [mPa·s]
298.15 K	786.67	0.543
308.15 K	777.18	0.4708
318.15 K	767.75	0.4194

CO [methanol] + Cc1ncc(CO)c(CO)c1O.Cl
[1], m2 = 0
Details	mass density [kg/m3]	viscosity [mPa·s]
298.15 K	786.67	0.543
308.15 K	777.18	0.4708
318.15 K	767.75	0.4194
